According to PubChem BioAssay AID330 (DTP/NCI, 2004):
Where “and” joins values, the source holds several entries; their conditions need not be identical. Identical values can stand only once. Inconclusive results and toxic doses are left out. Rule for the calls: active = survival T/C of 150% or more; inactive = T/C below 125% in these data.

Test system: P388 leukemia ip, CD2F1 mice, survival T/C
Assay: NCI In Vivo Anticancer Drug Screen. Data for tumor model P388 Leukemia (intraperitoneal) in CD2F1 (CDF1) mice
Settings: endpoint: median survival time, higher = longer survival
Procedure, shortened: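 Mice carrying the transplanted tumor received test compound or vehicle. Survival was recorded in each group, and the value is the treated-group measurement divided by that of the vehicle-treated control group.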

[1] = dose: 6.25 mg/kg/injection, schedule: Q01DX005 (ip), vehicle: Klucel (hydroxypropylcellulose) (HPC)
[2] = dose: 12.5 mg/kg/injection, schedule: Q01DX005 (ip), vehicle: Klucel (hydroxypropylcellulose) (HPC)
[3] = dose: 60.0 mg/kg/injection, schedule: Q01DX005 (ip), vehicle: saline with Tween-80
[4] = dose: 120.0 mg/kg/injection, schedule: Q01DX005 (ip), vehicle: saline with Tween-80
[5] = dose: 50.0 mg/kg/injection, schedule: Q01DX005 (ip), vehicle: Klucel (hydroxypropylcellulose) (HPC)
[6] = dose: 25.0 mg/kg/injection, schedule: Q01DX005 (ip), vehicle: Klucel (hydroxypropylcellulose) (HPC)
[7] = dose: 100.0 mg/kg/injection, schedule: Q01DX005 (ip), vehicle: Klucel (hydroxypropylcellulose) (HPC)
[8] = dose: 100.0 mg/kg/injection, schedule: Q01DX001 (ip), vehicle: saline with Tween-80
[9] = dose: 200.0 mg/kg/injection, schedule: Q01DX001 (ip), vehicle: saline with Tween-80
[10] = dose: 400.0 mg/kg/injection, schedule: Q01DX001 (ip), vehicle: saline with Tween-80
[11] = dose: 12.5 mg/kg/injection, schedule: Q01DX009 (ip), vehicle: saline
[12] = dose: 50.0 mg/kg/injection, schedule: Q01DX005 (ip), vehicle: saline with Tween-80
[13] = dose: 100.0 mg/kg/injection, schedule: Q01DX005 (ip), vehicle: saline with Tween-80
[14] = dose: 200.0 mg/kg/injection, schedule: Q01DX005 (ip), vehicle: saline with Tween-80
[15] = dose: 50.0 mg/kg/injection, schedule: Q01DX009 (ip), vehicle: saline with Tween-80
[16] = dose: 100.0 mg/kg/injection, schedule: Q01DX009 (ip), vehicle: other
[17] = dose: 200.0 mg/kg/injection, schedule: Q01DX009 (ip), vehicle: other
[18] = dose: 25.0 mg/kg/injection, schedule: Q01DX005 (ip), vehicle: water
[19] = dose: 50.0 mg/kg/injection, schedule: Q01DX005 (ip), vehicle: water
[20] = dose: 100.0 mg/kg/injection, schedule: Q01DX005 (ip), vehicle: water

Measured: T/C

COc1cccc2c1C(=O)c1c(O)c3c(c(O)c1C2=O)CC(O)(C(C)=O)CC3OC1CC(NC2CCCCC2)C(O)C(C)O1 (stereo unspecified)
inactive: dose: 6.25 mg/kg/injection, schedule: Q04DX003 (ip), vehicle: distilled water + Tween-80 100 % of control | dose: 12.5 mg/kg/injection, schedule: Q04DX003 (ip), vehicle: distilled water + Tween-80 104 % of control | dose: 25.0 mg/kg/injection, schedule: Q04DX003 (ip), vehicle: distilled water + Tween-80 102 % of control | dose: 50.0 mg/kg/injection, schedule: Q04DX003 (ip), vehicle: distilled water + Tween-80 102 % of control | dose: 100.0 mg/kg/injection, schedule: Q04DX003 (ip), vehicle: distilled water + Tween-80 104 % of control | dose: 200.0 mg/kg/injection, schedule: Q04DX003 (ip), vehicle: distilled water + Tween-80 108 % of control

Cc1cc2nc3cc(C)c(N)cc3[n+](-c3ccccc3)c2cc1N
inactive: [1] 109 % of control | [2] 116 % of control

O=C1Nc2ccccc2/C1=N\N=c1/scc(-c2ccccc2)n1-c1ccccc1
inactive: [3] 101 % of control and 89 % of control | [4] 100 % of control | dose: 240.0 mg/kg/injection, schedule: Q01DX005 (ip), vehicle: saline with Tween-80 101 % of control and 97 % of control

CCCCCCCCCCCCCCC1(C(=O)OC)CO1 (stereo unspecified)
inactive: [1] 94 % of control | [2] 94 % of control | [5] 102 % of control

O=C(O)C1C(C(=O)O)C2C(=O)C=CC1N2Cc1ccccc1 (stereo unspecified)
inactive: [2] 105 % of control | [6] 99 % of control and 116 % of control | [5] 112 % of control and 114 % of control and 115 % of control | [7] 103 % of control and 118 % of control and 122 % of control

CC1(C)N=C(N)N=C(N)N1c1ccc(Cl)cc1
inactive: dose: 12.5 mg/kg/injection, schedule: Q01DX005 (ip), vehicle: saline 103 % of control | dose: 25.0 mg/kg/injection, schedule: Q01DX005 (ip), vehicle: saline 117 % of control | dose: 50.0 mg/kg/injection, schedule: Q01DX005 (ip), vehicle: saline 124 % of control

Cc1ccc(C(=O)/C(N)=C\c2c[nH]c3ccccc23)cc1
inactive: [8] 104 % of control | [9] 100 % of control | [10] 98 % of control

COc1cc(/C=C/c2ccncc2)ccc1OC(C)=O
inactive: [6] 100 % of control | [5] 100 % of control | [7] 101 % of control | dose: 200.0 mg/kg/injection, schedule: Q01DX005 (ip), vehicle: Klucel (hydroxypropylcellulose) (HPC) 100 % of control

CC(=O)Oc1cccnc1[N+](=O)[O-]
inactive: [11] 103 % of control and 106 % of control | dose: 25.0 mg/kg/injection, schedule: Q01DX009 (ip), vehicle: saline 100 % of control and 101 % of control | dose: 50.0 mg/kg/injection, schedule: Q01DX009 (ip), vehicle: saline 102 % of control and 120 % of control and 94 % of control | dose: 100.0 mg/kg/injection, schedule: Q01DX009 (ip), vehicle: saline 106 % of control and 108 % of control and 123 % of control | dose: 200.0 mg/kg/injection, schedule: Q01DX009 (ip), vehicle: saline 105 % of control and 119 % of control | dose: 400.0 mg/kg/injection, schedule: Q01DX009 (ip), vehicle: saline 105 % of control

CC1CCCC/C1=N/SC(c1ccccc1)(c1ccccc1)c1ccccc1 (stereo unspecified)
inactive: [8] 91 % of control | [9] 89 % of control | [10] 87 % of control

[CH3][Sn]([CH3])([Cl])[CH2]CC[CH2][Sn]([Cl])([Cl])[Cl]
inactive: dose: 6.25 mg/kg/injection, schedule: Q01DX009 (ip), vehicle: saline 110 % of control | [11] 99 % of control

CC(C)=CC[P+](CCC[P+](CC=C(C)C)(c1ccccc1)c1ccccc1)(c1ccccc1)c1ccccc1
inactive: dose: 3.12 mg/kg/injection, schedule: Q01DX005 (ip), vehicle: saline with Tween-80 106 % of control | dose: 6.25 mg/kg/injection, schedule: Q01DX005 (ip), vehicle: saline with Tween-80 104 % of control | dose: 12.5 mg/kg/injection, schedule: Q01DX005 (ip), vehicle: saline with Tween-80 98 % of control

O=C(Nc1c(Cl)cc(Cl)cc1Cl)ON=C1CCCCC1
inactive: [3] 96 % of control | [4] 102 % of control

CC(=O)C(C(=O)Nc1cccc2ccccc12)C(C)=NCC(C)N=C(C)C(C(C)=O)C(=O)Nc1cccc2ccccc12.[Cu] (stereo unspecified)
inactive: dose: 12.5 mg/kg/injection, schedule: Q01DX005 (ip), vehicle: saline + Tween-80 + alcohol 110 % of control | dose: 25.0 mg/kg/injection, schedule: Q01DX005 (ip), vehicle: saline + Tween-80 + alcohol 96 % of control | dose: 50.0 mg/kg/injection, schedule: Q01DX005 (ip), vehicle: saline + Tween-80 + alcohol 105 % of control

NC(=O)CCS(=O)(=O)Cc1ccccc1
inactive: [12] 98 % of control | [13] 95 % of control | [14] 93 % of control

COc1ccc(/C(=N/SC)N(C)C)cc1
inactive: dose: 3.75 mg/kg/injection, schedule: Q01DX005 (ip), vehicle: saline 103 % of control | dose: 7.5 mg/kg/injection, schedule: Q01DX005 (ip), vehicle: saline 111 % of control | dose: 15.0 mg/kg/injection, schedule: Q01DX005 (ip), vehicle: saline 104 % of control

O=C(CI)NCCNc1cccc2c(S(=O)(=O)O)cccc12
inactive: dose: 25.0 mg/kg/injection, schedule: Q01DX009 (ip), vehicle: saline with Tween-80 102 % of control | [15] 100 % of control | dose: 100.0 mg/kg/injection, schedule: Q01DX009 (ip), vehicle: saline with Tween-80 110 % of control and 95 % of control

Cn1c(Br)c(/C=N/NC(N)=S)c2ccccc21
inactive: dose: 100.0 mg/kg/injection, schedule: Q01DX001 (ip), vehicle: Klucel (hydroxypropylcellulose) (HPC) 108 % of control | dose: 200.0 mg/kg/injection, schedule: Q01DX001 (ip), vehicle: Klucel (hydroxypropylcellulose) (HPC) 100 % of control | dose: 400.0 mg/kg/injection, schedule: Q01DX001 (ip), vehicle: Klucel (hydroxypropylcellulose) (HPC) 102 % of control

[Cr+6].[NH-]CCC[NH-].[NH-]CCC[NH-].[NH-]CCC[NH-]
inactive: dose: 200.0 mg/kg/injection, schedule: Q01DX001 (ip), vehicle: saline 95 % of control | dose: 400.0 mg/kg/injection, schedule: Q01DX001 (ip), vehicle: saline 90 % of control

O=C(O)CCCCCCCCCOC(C[N+](=O)[O-])C(Cl)(Cl)Cl (stereo unspecified)
inactive: dose: 50.0 mg/kg/injection, schedule: Q01DX009 (ip), vehicle: other 102 % of control | [16] 103 % of control | [17] 113 % of control

CCCCc1c(O)c(N=NC(N)=S)c2ccccc2c1O
inactive: [12] 95 % of control | [13] 94 % of control | [14] 91 % of control

O=c1n(-c2ccccc2)c(=O)n2n1CC(c1ccccc1)=N2
inactive: [16] 99 % of control | [17] 91 % of control | dose: 400.0 mg/kg/injection, schedule: Q01DX009 (ip), vehicle: other 89 % of control

CCN(CC)CCNC(=O)c1cc(Cl)c(N)cc1OC
inactive: dose: 3.12 mg/kg/injection, schedule: Q01DX005 (ip), vehicle: water 100 % of control and 105 % of control | dose: 6.25 mg/kg/injection, schedule: Q01DX005 (ip), vehicle: water 108 % of control and 95 % of control | dose: 12.5 mg/kg/injection, schedule: Q01DX005 (ip), vehicle: water 104 % of control and 105 % of control | [18] 104 % of control and 107 % of control | [19] 103 % of control and 111 % of control and 122 % of control | [20] 100 % of control and 106 % of control and 117 % of control

OCN(CO)c1nc(N(CO)CO)nc(N(CO)CO)n1
inactive: dose: 6.3 mg/kg/injection, schedule: Q01DX009 (ip), vehicle: saline with Tween-80 109 % of control | dose: 12.5 mg/kg/injection, schedule: Q01DX009 (ip), vehicle: saline with Tween-80 106 % of control | [15] 108 % of control

C1COC(NC2CC3CCC2C3)=N1 (stereo unspecified)
inactive: dose: 6.25 mg/kg/injection, schedule: Q04DX003 (ip), vehicle: saline with Tween-80 100 % of control | dose: 12.5 mg/kg/injection, schedule: Q04DX003 (ip), vehicle: saline with Tween-80 100 % of control | dose: 25.0 mg/kg/injection, schedule: Q04DX003 (ip), vehicle: saline with Tween-80 100 % of control

COC(=O)[C@H]1O[C@H]1c1cc[n+]([O-])cc1
inactive: [18] 101 % of control | [19] 102 % of control | [20] 105 % of control | dose: 200.0 mg/kg/injection, schedule: Q01DX005 (ip), vehicle: water 109 % of control
